In patent publication US20230107039A1, “SOFT CHEWABLE FORMED BODY FOR THE ADMINISTRATION TO ANIMALS” (Bayer Animal Health GmbH, priority 2020, published 2023):

Assay: Solubility in a mixture of water and glycerol
Type: physicochemical
Settings: experimental studies, no figures given

SMILES: O=C(C1CCCCC1)N1CC(=O)N2CCc3ccccc3C2C1 (racemic) [praziquantel, (RS)-2-(Cyclohexylcarbonyl)-2,3,4,6,7,11b-hexahydro-1H-pyrazino[2,1-a]isochinoline-4-on]
- solubility in a mixture of water and glycerol: high solubility
